{"source": "patent US20180221438A1", "about": "“MODULATING URACIL-DNA GLYCOSYLASE AND USES THEREOF” (Adaerata Limited Partnership, priority 2015, published 2018)", "format_in_all_cases": "cell-based", "key": {"[1]": {"tested_on": "Primary B cells from AID UNG double deficient mice", "details": "1 nM DidB, 72 h, AID-ires-GFP vs GFP alone or AIDE58A", "protocol": "Primary B cells were harvested from AID UNG double deficient mice and cultured with anti-CD180, IL-4 and LPS. […] 24 h post infection, cells were treated with either DMSO vehicle or 1 nM of the EEF1A inhibitor DidB. Toxicity was measured after 72 h as the % difference of GFP+ cells in the DidB-treated culture compared to DMSO control. Data from two mice are averaged, bars are SEM."}, "[2]": {"tested_on": "B cells from wt or UNG−/− mice", "assay": "B cell expansion by cell count after DidB treatment", "details": "cells counted 48 h post-treatment, LPS and IL-4", "protocol": "(§1) B cells were purified from wt or UNG−/− mice, and cultured directly with LPS and IL-4 and were counted 48 h post-treatment in order to measure B cell expansion (FIG. 14B); or after loading with the CFSE dye and cell divisions for treated cells were measured by analyzing the dilution of CFSE dye at 24 h post-treatment. Dilution of CFSE in cells is proportional to proliferation (FIGS. 14C-D).\n(§2) 24 h later, cells were treated with either DMSO or DidB."}, "[3]": {"tested_on": "B cells from wt or UNG−/− mice", "assay": "B cell divisions by CFSE dilution after DidB treatment", "details": "Ung-deficient vs wt B cells", "protocol": "as §1, §2"}}}
{"compound": "CC[C@H](C)[C@H]1NC(=O)[C@@H](NC(=O)[C@@H](CC(C)C)N(C)C(=O)[C@@H]2CCCN2C(=O)C(C)O)[C@@H](C)OC(=O)[C@H](Cc2ccc(OC)cc2)N(C)C(=O)[C@@H]2CCCN2C(=O)[C@H](CC(C)C)NC(=O)[C@@H](C)C(=O)[C@H](C(C)C)OC(=O)C[C@@H]1O", "note": "(stereo partly shown) [DidB, didemnin B]", "values": [{"measurement": "sensitivity to DidB (toxicity, % difference of GFP+ cells vs DMSO)", "setting": "[1]", "value": "substantially more sensitive"}, {"measurement": "B cell expansion", "setting": "[2]", "value": "further diminishes expansion in Ung-deficient B cells"}, {"measurement": "sensitivity to DidB treatment (cell divisions, CFSE)", "setting": "[3]; 24 h post-treatment", "value": "more sentitive"}, {"measurement": "inhibition of proliferation", "setting": "[3]; dose-dependent, CFSE dilution 24 h post-treatment", "value": "more marked in Ung-deficient B cells than wt B cells"}]}
